Reference: patent US20230165841A1, “PREVENTION AND INTERVENTION OF INFARCT EXPANSION FOLLOWING HEMORRHAGIC INFARCTIONS” (CEDARS-SINAI MEDICAL CENTER, priority 2020, published 2023)
“Also recorded” adds a separate entry of the source.

What was measured:
[1] = tested on: mice with reperfused MI; details: pre-treating prior to ischemia; cited from earlier work
[2] = cited from earlier work
[3] = tested on: post MI patients; details: 6 months of EDTA therapy starting 6-weeks post MI; cited from earlier work
[4] = tested on: rats subjected to hMIs (90-min I/R); details: for LVEF: echocardiography, EDTA 40 mg/kg/day oral gavage upon reperfusion, followed 4 weeks, PBS 30±4%; for Adverse LV remodeling / cardioprotection: rats with hMI, post reperfusion treatment
[5] = tested on: dogs with reperfused hemorrhagic MI; test: Deferiprone interventional arm in canine model of hemorrhagic MI (serial CMR); type: in vivo, dog
[6] = tested on: cardiomyocyte culture; test: Total ROS in cardiomyocyte culture treated with Hx, DFP, hemin; type: cell-based; details: compared to controls; FIG. 16 axis μM/mg protein/min
Source text: FIG. 16 is a bar graph depicting the total ROS production (μM/mg protein/min) in cardiomyocyte culture treated with different agents or control, indicating the importance of physiochemical state of degradation products of hemorrhage being the therapeutic targets.
Physiochemical features of degradation products of hemorrhage are important for determining optimal therapy. An early byproduct of hemorrhage is extracellular heme (an Fe^2+ complex), which is eventually internalized by cardiomyocytes. Applicant tested whether pretreating cardiomyocytes in culture with hemopexin (Hx), a heme scavenger, can rescue the cells from oxidative stress compared to an intracellular Fe^3+ chelator deferiprone (DFP). Methods: Studies were performed in an cardiomyocyte culture. Total ROS following treatment with Hx, DFP, hemin, hemin+Hx, hemin+DFP were measured. […] Summary: Location of hemorrhagic byproducts (intra- vs. extra-cellular) and oxidation state are critical features that need to be accounted for in the development of therapies against hMI. To develop an optimal ICT strategy against hMI we will identify the physiochemical features of hemorrhagic byproducts in rats with hMI sacrificed at different time points.

[7] = tested on: rats with 90-min I/R (hMI); test: Hemopexin treatment of rats with 90-min I/R (hMI); type: in vivo, rat
Source text: FIGS. 12A and 12B depict the therapeutic benefits of hemopexin (Hx). […] Note the ventricular dilation in rats treated with PBS (not evident Hx treated rates). Long- and shor-axis (along dotted lines) views are shown.
Background: Hemopexin (Hx), a known scavenger of heme, and a key byproduct of hemorrhage. Applicant tested whether treating rats with 90-min I/R (known to yield hMI) with Hx could reduce oxidative stress in the acute phase and improve LV remodeling in the chronic phase. Methods: Rats (n=12) underwent 90-min I/R: 50% of the animals were treated with Hx (700 μg, i.p. immediately and 2 days post reperfusion) and the rest were treated with PBS. LV function was determined with echo. Half of each group was sacrificed at 24-hrs and the rest were sacrificed at 1-month post MI. […] LVEF were: 51±4% (Hx+) vs 32±5% (control), p<0.05. Summary: Heme-specific scavenger, Hx, can attenuate the adverse effects of hMI.

[8] = DFP 100 mg/kg/day oral gavage from 3 days post reperfusion
[9] = vs EDTA-treated or placebo controls

Molecule: c1ccc(-c2ccccn2)nc1 [BPD, 2,2-bipyridl]
- Mitochondrial iron and reperfusion injury [1]: could reduce

Molecule: CC(=O)N(O)CCCCCNC(=O)CCC(=O)N(O)CCCCCNC(=O)CCC(=O)N(O)CCCCCN [DFO, deferoxamine]
- Lipid solubility (note in Location column) [2]: (lipid insoluble)

Molecule: O=C(O)CN(CCN(CC(=O)O)CC(=O)O)CC(=O)O [EDTA, ethylenediaminetetraacetic acid]
- MACE [3]: did not decrease
- Stability of ferric-EDTA complex ([2]; can be transformed to ferrous-EDTA in vivo): unstable
- LVEF [4, 8]: 32±3%
- Adverse LV remodeling / cardioprotection [4]: did not decrease; also recorded: does not provide cardioprotection

Molecule: Cc1c(O)c(=O)ccn1C [DFP, Deferiprone]
- Relative PDFF in the MI zones, change between D3 and Wk8 ([5]; DFP+/IMH+ group): did not show an increase
- LVEF ([5]; DFP+/IMH+ group by M6, p<0.03): over 40%
- Remote wall thickness, change over the 6-month period ([5]; DFP+/IMH+ group, diastolic): decreased
- Magnitude of peak circumferential strain (Peak εc) vs DFP−/IMH+ group ([5]; Wk8 to M6 and D3 to M6, p<0.05): significant greater
- Fat infiltration within the MI zones vs DFP−/IMH+ group ([5]; at M6): significantly lower
- Infarct wall thickness, treated group compared to untreated group ([5]; at M6, p<0.05): +34%
- Infarct-to-remote wall thickness (I:RWT), DFP+/IMH+ vs DFP−/IMH+ ([5]; at M6, p<0.05): +67%
- Remote wall thickness, DFP−/IMH+ group compared to DFP+/IMH+ group ([5]; at M6, untreated larger, p<0.05): +28%
- LVEF, DFP+/IMH+ group vs DFP−/IMH+ group ([5]; at Month 6, p<0.005): +36%
- Fat content based on PDFF (normalized to D3) vs untreated group ([5]; at Wk8 and M6): marked reduction
- End-systolic volume (ESV) vs DFP−/IMH+ group ([5]; at both Wk8 and Mo6, p<0.05): lower
- Fat content within MI zone vs untreated control group ([5]; at the end of the treatment period (Wk8)): decreased precipitously
- Total ROS, agent alone [6]: did not increase
- Safety of delayed treatment [4, 8]: safe
- Iron and proinflammatory markers in the scarred myocardium ([4]; IL-1β, TNF-α, MMP9, vs EDTA-treated or placebo controls): reduced
- Iron in MI zones ([4]; T2*-CMR / Prussian Blue, vs EDTA-treated or placebo controls): little to no iron; also recorded: much lower
- LVEF [4, 8]: 42±4%
- Adverse LV remodeling / cardioprotection [4]: marked reduction
- LV dilatation [4, 9]: reduced
- Wall thickness (infarcted and remote) [4, 9]: thicker

Molecule: hemin
- Total ROS, agent alone [6]: markedly increased

B1: hemopexin (protein, UniProt P02790 24-462, looked up)
Hemopexin: TPLPPTSAHGNVAEGETKPDPDVTERCSDGWSFDATTLDDNGTMLFFKGEFVWKSHKWDRELISERWKNFPSPVDAAFRQGHNSVFLIKGDKVWVYPPEKKEKGYPKLLQDEFPGIPSPLDAAVECHRGECQAEGVLFFQGDREWFWDLATGTMKERSWPAVGNCSSALRWLGRYYCFQGNQFLRFDPVRGEVPPRYPRDVRDYFMPCPGRGHGHRNGTGHGNSTHHGPEYMRCSPHLVLSALTSDNHGATYAFSGTHYWRLDTSRDGWHSWPIAHQWPQGPSAVDAAFSWEEKLYLVQGTQVYVFLTKGGYTLVSGYPKRLEKEVGTPHGIILDSVDAAFICPGSSRLHIMAGRRLWWLDLKSGAQATWTELPWPHEKVDGALCMEKSLGPNSCSANGPGLYLIHGPNLYCYSDVEKLNAAKALPQPQNVTSLLGCTH
notes: a known scavenger of heme
- LV remodeling ([7]; 1-month post reperfusion, vs PBS-treated group): better
- Total ROS (production within MI) ([7]; 24 hrs post reperfusion, Hx 700 μg i.p. immediately and 2 days post reperfusion, vs PBS control): significantly lower
- LVEF ([7]; echo, Hx 700 μg i.p. immediately and 2 days post reperfusion, control 32±5%, p<0.05): 51±4%
- Total ROS, agent alone [6]: did not increase
